According to article PMC10901353, “Identification of a potent and selective LAPTc inhibitor by RapidFire-Mass Spectrometry, with antichagasic activity” (PLOS Neglected Tropical Diseases, 2024):
“And” between values parts separate entries of the source, which are not always exact repeats. Identical values can stand only once. “Also recorded” adds a separate entry of the source. Like-named read-outs stand apart in the source and are kept apart here.

Assays:
[1] = target: T1, LAPTc (acidic M17 leucyl-aminopeptidase from T. cruzi) (Trypanosoma cruzi, UniProt V5BWE3); experiment: High-throughput single point screening for LAPTc inhibitors by RapidFire-MS; format: biochemical; details: read-out: Percent Inhibition
T1 sequence (V5BWE3 entry or part of it): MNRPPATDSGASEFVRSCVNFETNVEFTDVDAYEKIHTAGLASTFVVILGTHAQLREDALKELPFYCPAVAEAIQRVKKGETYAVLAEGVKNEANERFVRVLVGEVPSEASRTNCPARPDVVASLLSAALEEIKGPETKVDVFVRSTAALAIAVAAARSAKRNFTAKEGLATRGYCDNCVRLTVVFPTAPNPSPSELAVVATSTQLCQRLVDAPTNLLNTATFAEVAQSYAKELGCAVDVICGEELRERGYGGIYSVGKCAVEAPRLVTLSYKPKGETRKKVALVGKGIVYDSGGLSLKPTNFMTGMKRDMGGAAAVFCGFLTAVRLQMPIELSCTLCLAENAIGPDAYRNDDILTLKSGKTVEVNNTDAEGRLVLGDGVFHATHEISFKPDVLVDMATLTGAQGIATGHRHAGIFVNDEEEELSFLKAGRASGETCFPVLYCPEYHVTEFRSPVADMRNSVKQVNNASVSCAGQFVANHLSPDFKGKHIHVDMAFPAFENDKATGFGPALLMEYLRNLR
Procedure: (§1) This assay was previously described. The assay was performed in 384-well clear F-bottom polypropylene plates with a final reaction volume of 15 μL. The reaction mixture contained 7.5 μL LAPTc in 50 mM Tris-HCl, pH 7.5, 0.005% NP-40 and 7.5 μL LSTVIVR peptide substrate (Cambridge Research Biochemicals, Billingham, UK) in the same buffer was added to start the reaction. The reaction was performed at room temperature for 40 min and then stopped with 85 μL 1% formic acid containing 0.15 mg/mL STVIVR* internal standard (Cambridge Research Biochemicals, Billingham, UK).
Single point screening of a library of 3329 compounds was performed in 384-well clear plates (Greiner 781101) at room temperature. Test compounds (45 nL in DMSO) were transferred to assay plates by an ECHO 550 acoustic dispenser (Labcyte). LAPTc was tested at 3 nM with 150 μM (approximately the value of the apparent Michaelis-Menten constant -appKM- [16]) LSTVIVR peptide substrate in a 40 min reaction. Before addition of substrate, LAPTc was preincubated with 45 nL compounds or DMSO for 15 min. Compounds, dissolved in DMSO, were tested at 30 μM. Controls without compound (the same volume of DMSO, 0% inhibitory effect) and without enzyme and compound (100% inhibitory effect) were prepared. The experiment was performed without replicates. The remaining experimental conditions were maintained as previously described. Data were processed and analysed through ActivityBase XE (IDBS). The selection criterion for hits in this single point screen was percent inhibition larger than the mean plus three standard deviations. All primary screening data are available in ChEMBL (see Data Availability statement).

[2] = target: T1, LAPTc (acidic M17 leucyl-aminopeptidase from T. cruzi); experiment: Dose-response studies for LAPTc inhibition by RapidFire-MS; format: biochemical
Procedure: as §1
To generate half-maximum inhibitory concentration (IC50) data for LAPTc, 10-point dose-response curves with 100 μM as highest concentration and 1:2 dilution in DMSO (0.195–100 μM range) were prepared in 384 well plates. All other experimental conditions were as described above. All IC50 curve fitting was performed by four-parameter logistic dose-response curve fit using ActivityBase XE (IDBS). At least three replicates were generated for each hit compound.

[3] = target: LAPTc (Trypanosoma cruzi, UniProt V5BWE3); experiment: Mode of inhibition studies by RapidFire-MS; format: biochemical
Sequence of LAPTc (V5BWE3 entry or part of it): as above
Procedure: Five concentrations of the LSTVIVR peptide substrate (100–1600 μM range) were tested in the presence of 3 nM LAPTc for 40 min. For each substrate concentration, compound 4 was tested at 0, 0.1 and 0.2 μM. For each substrate and compound 4 concentration, a negative control without enzyme was used. Before addition of substrate, LAPTc was preincubated with compound 4 for 15 min. Other experimental conditions were as previously described. Ki was calculated by fitting the Morrison equation to the experimental data. Binding energy (ΔGb) was calculated from Ki according to the equation ΔG = -RTlnKi.

[4] = target: T2, human LAP3 (Homo sapiens, UniProt P28838); experiment: Dose-response studies for human LAP3 inhibition by RapidFire-MS; format: biochemical
T2 construct: purchased Assay Genie, Ireland
T2 sequence (P28838 whole entry): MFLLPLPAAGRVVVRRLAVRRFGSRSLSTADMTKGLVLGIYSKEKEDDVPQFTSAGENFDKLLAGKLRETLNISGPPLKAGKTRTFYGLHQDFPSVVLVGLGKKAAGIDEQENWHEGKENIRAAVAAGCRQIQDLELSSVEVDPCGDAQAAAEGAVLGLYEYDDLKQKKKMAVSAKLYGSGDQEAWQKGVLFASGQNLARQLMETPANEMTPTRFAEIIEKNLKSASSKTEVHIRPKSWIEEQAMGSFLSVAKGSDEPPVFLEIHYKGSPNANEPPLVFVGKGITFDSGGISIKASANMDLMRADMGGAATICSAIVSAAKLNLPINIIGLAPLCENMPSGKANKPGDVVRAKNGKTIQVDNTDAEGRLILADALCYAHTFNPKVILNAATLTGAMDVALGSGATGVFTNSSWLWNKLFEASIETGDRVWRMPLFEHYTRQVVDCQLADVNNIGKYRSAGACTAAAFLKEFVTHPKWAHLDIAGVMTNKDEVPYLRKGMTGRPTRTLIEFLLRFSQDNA
Procedure: Human LAP3 enzyme (Assay Genie, Ireland) was tested at 150 nM with 600 μM (~1 appKM) LSTVIVR peptide substrate and 1 mM ZnCl2 in a 180 min reaction. All other experimental conditions were as described above for dose-response assays with LAPTc.

[5] = test system: intracellular T. cruzi amastigotes; experiment: T. cruzi intracellular assay (high-content imaging, infected Vero cells); format: cell-based, Trypanosoma cruzi; parameters: Max Effect (T. cruzi): unit not given here
Procedure: T. cruzi parasite, TcI strain Silvio X10/7 subclone A1 [34] was maintained in culture as previously described. Parasites were maintained as amastigotes by passaging on a weekly basis in Vero cells. Culture maintenance infections were carried out at an MOI (multiplicity of infection) of 1.5.
(§2) This assay was performed as described with the only modification that treatment was 96 h instead of 72 h. Briefly, Vero cells were infected overnight with tissue culture derived T. cruzi trypomastigotes in T225 tissue culture flasks (MOI 5). Any remaining free trypomastigotes were washed away with serum free MEM and the infected Vero cells were harvested by trypsinisation. Compounds (250 nL in DMSO) were dispensed using LabCyte ECHO (Beckman Coulter Life Sciences, USA) into each well of Corning black flat bottomed 384-well plates (Corning, USA). […] The infected Vero cells were then plated into the plates containing the compounds, at 4,000 cells per well in MEM media with 1% FCS. After 96 h incubation at 37°C in presence of 5% CO2, the plates were fixed with 4% formaldehyde for 20 min at room temperature and stained with 5 μg/mL Hoechst 33342. The plates were imaged on a Perkin Elmer Operetta high-content imaging system using a 20× objective. Images were analyzed using the Columbus system (Perkin Elmer). The algorithm first identified the Vero nuclei followed by demarcation of the cytoplasm and identification of intracellular amastigotes. This algorithm reported percent infected Vero cell and total number of Vero cells. All potency determinations were carried out in at least three independent replicates and are reported as pEC50 +/- standard deviation. pEC50 = -log(EC50[M]).

[6] = Cytotoxicity against infected Vero host cells in T. cruzi intracellular assay; format: cell-based, African green monkey; parameters: Max Effect (Vero): unit not given here; details: African green monkey, Vero cells infected with T. cruzi; infected Vero host cells, 96 h; read-out: pCC50 (Vero) +/- StDev (converted)
Procedure: (§3) Briefly, these cells were maintained at 37°C and 5% CO2 in MEM supplemented with 10% FCS, sub-culturing every 2–3 days at a ratio of 1:5 after 5 min treatment with Trypsin-EDTA (Gibco).
as §2, with “After 96 h incubation at 37°C in presence of 5% CO2, the plates were fixed with 4% formaldehyde for 20 min at room temperature and stained with 5 μg/mL Hoechst 33342.” left out

[7] = test system: Vero cells; experiment: as above; format: cell-based, African green monkey; parameters: Max Effect (Vero): unit not given here
Procedure: as §3
as §2, with “After 96 h incubation at 37°C in presence of 5% CO2, the plates were fixed with 4% formaldehyde for 20 min at room temperature and stained with 5 μg/mL Hoechst 33342.” left out

[8] = Cytotoxicity assay on human HepG2 cells (resazurin); format: cell-based; details: human, HepG2 cells, 72 h, two independent experiments; read-out: pCC50 (HepG2) (converted)
[9] = test system: HepG2 cells; experiment: as above; format: cell-based
[10] = Replicate data generation, individual replicates

COc1ccc2oc(C(=O)Nc3nc(-c4ccccn4)cs3)c(C)c2c1 [Compound 4]
inhibition at 30 µM [1]: 59% | IC50 ([2]; IC50 (LAPTc)): 440 nM | Hill Slope ([2]; Initial hit confirmation, single replicate): 2.5 | Hill Slope [2, 10]: 2.8 and 2.1 and 2.3 | Maximum Effect [2, 10]: 87% and 81% | IC50 ([2]; pIC50 +/- StDev (LAPTc), average of four independent replicates): 437 nM | IC50 ([2]; pIC50, Initial hit confirmation, single replicate): 200 nM | IC50 ([2]; pIC50, Replicate data generation, individual replicates): 794 nM and 501 nM | Emax ([2]; read-out: Maximum Effect, Initial hit confirmation, single replicate): 96% | Emax ([2]; read-out: Maximum Effect, Replicate data generation, individual replicates): 83% | Hit Confirmation ([2]; whether primary screen hit confirmed in potency experiment): confirmed | Ki [3]: 270 nM | ligand efficiency (LE) ([3]; LE = -RT ln Ki / number of non-hydrogen atoms): 0.33 | experimental binding energy (ΔGb) ([3]; calculated from Ki, ΔG = -RTlnKi): -8.95 kcal/mol | mode of inhibition ([3]; with respect to substrate peptide LSTVIVR, Lineweaver-Burk): competitive inhibitor | IC50 [4]: > 100000 nM | EC50 ([5]; Trypanosoma cruzi, Vero, 96 h, four independent experiments, read-out: pEC50 (T. cruzi) +/- StDev (converted)): 676 nM | EC50 ([5]; Trypanosoma cruzi, Vero, 96 h, read-out: EC50 (T. cruzi amastigotes)): 700 nM | Emax ([5]; Trypanosoma cruzi, Vero, individual replicates, read-out: Max Effect (T. cruzi)): 95% | EC50 ([5]; Trypanosoma cruzi, Vero, individual replicates, read-out: pEC50 (T. cruzi) (converted)): 631 nM | Max Effect (T. cruzi) ([5]; individual replicates): 92 and 96 and 100 | pEC50 (T. cruzi) ([5]; individual replicates): 6.1 | CC50 at 96 h [6]: 2240 nM | Selectivity index (fold window Tc/Vero) [7]: 3.3 fold | Max Effect (Vero) ([7]; individual replicates): 85 and 83 and 79 | pEC50 (Vero) ([7]; individual replicates): 5.4 and 6.0 and 5.5 and 5.8 | CC50 at 72 h [8]: > 100000 nM | Selectivity window based on the HepG2 data ([9]; T. cruzi vs HepG2): > 166 fold | Max Effect (HepG2) ([9]; individual replicates): 38 and 49 | pEC50 (HepG2) ([9]; individual replicates): < 4.0 | toxicity against HepG2 cells (in words) ([9]; uninfected HepG2 cells): no toxicity was observed; also recorded: some toxicity was seen for compound 4 at 33 μM and 100 μM
